{
  "source": "patent US20250064762A1",
  "about": "“A SUBSTITUTED AROMATIC DICARBONIC ACID AMIDE AS AN INHIBITOR OF THE FERROPTOSIS SUPPRESSOR PROTEIN-1 (FSP1)” (JULIUS-MAXIMILIANS-UNIVERSITÄT WÜRZBURG, priority 2021, published 2025)",
  "key": {"murine FSP1": {"molecular_target": "T1, murine FSP1 (Mus musculus, UniProt Q8BUE4)", "T1 construct": "His6 (N, cleaved yes); made in house; host or cells: Escherichia coli BL21 pG-Tf2", "T1 sequence (Q8BUE4 1-373)": "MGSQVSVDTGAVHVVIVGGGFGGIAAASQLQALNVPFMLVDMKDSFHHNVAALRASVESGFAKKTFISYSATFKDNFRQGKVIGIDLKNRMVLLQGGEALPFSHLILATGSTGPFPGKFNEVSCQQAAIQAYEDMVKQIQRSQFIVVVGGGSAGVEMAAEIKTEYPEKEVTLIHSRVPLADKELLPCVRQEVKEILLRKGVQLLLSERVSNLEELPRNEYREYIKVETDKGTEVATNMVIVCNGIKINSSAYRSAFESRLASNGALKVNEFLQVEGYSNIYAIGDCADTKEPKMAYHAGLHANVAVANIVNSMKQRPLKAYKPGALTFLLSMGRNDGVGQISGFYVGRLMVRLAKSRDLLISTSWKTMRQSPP", "experiment": "In vitro FSP1 oxidoreductase (NADH consumption) assay, murine FSP1", "format": "biochemical", "conditions": "resazurine or coQ1 as electron acceptor", "protocol": "(§1) FSP1 activity assays were performed using recombinant, purified murine or human FSP1, NADH, and resazurine or coenzyme-Q1 (coQ1) as electron acceptor molecules. The following conditions were used: 200 μM resazurine were reduced with 750 nM mFSP1 or 150 nM hFSP1; 100 μM coQ1 was reduced with 400 nM mFSP1; and 137 μM coQ1 were reduced with 200 nM hFSP1. The consumption of NADH (500 μM) was measured at 340 nm in phosphate-buffered saline (80 mM Na3PO4, 300 mM NaCl; pH 7.0) at room temperature on a CLARIOstar microplate reader (BMG Labtech). Initial rates were determined, and data were fitted by linear regression using GraphPad Prism software, version 9.1.2.\n(§2) In order to determine inhibition of FSP1 by CPBA, FSP1 activity was measured […] either CPBA or iFSP1 as a positive control. In vitro FSP1 oxidoreductase activity assays were performed using recombinant, purified murine or human FSP1, NADH, and resazurine or coenzyme-Q1 (coQ1) as electron acceptor molecules as described above (see FIG. 19).\n(§3) In vitro FSP1 activity assays with human (see FIG. 22 C) or murine (see FIG. 22 D) FSP1 were performed as described above. Shown are NADH consumption assays using recombinant, purified human or mouse FSP1 (hFSP1, mFSP1) and resazurine or coenzyme-Q1 (CoQ1) as electron acceptor molecules."}, "[1]": {"tested_on": "FSP1-WT or FSP1-KO HT1080 cells", "experiment": "FIN-induced ferroptosis in FSP1-WT or FSP1-KO cells", "format": "cell-based, human", "conditions": "iFSP1 10 μM, CPBA 100 μM; for extent of sensitization to ferroptosis in FSP1-WT cells: FIN56, BSO or RSL3, 16 h; for additional effect in FSP1-deficient cells: FSP1-KO HT1080", "protocol": "(§4) The following HT1080 fibrosarcoma cell lines were generated using CRISPR/Cas9 technology, as previously described (Doll et al., 2019): HT1080 GPX4-knockout (KO) cells (maintained in the presence of 100 μM α-tocopherol); HT1080 GPX4 knockout cells overexpressing FSP1 (GPX4-KO/FSP1-OE); GPX4-KO cells overexpressing FSP1 and re-expressing GPX4 (GPX4-KO/FSP1-OE/GPX4-OE); HT1080 FSP1-WT or FSP1-KO cells; and HT1080 FSP1-KO cells reconstituted with either FSP1-WT or FSP1-G2A. LOX-IMVI (BRAF V600E heterozygous human melanoma cells) expressing either the Venus mock vector or FSP1-Venus (Doll et al., 2019) were grown in RPMI-1640 supplemented with 10% FCS, 2 mM L-glutamine and Pen/Strep.\nCells were seeded onto 96-well plates (5,000 cells per well), and treated with serial dilutions of ferroptosis-inducing compounds (erastin, BSO, RSL3, FIN56) or cytotoxic drugs (staurosporine, nocodazole, tunicamycin, paclitaxel, etoposide, menadione, rotenone, FCCP, carboplatin) in the absence or presence of CPBA or iFSP1 (100 μM or 10 μM, respectively; unless stated otherwise) or the DMSO solvent control. Ferroptotic cell death was evaluated by incubating in the absence or presence of liproxstatin-1 (100 nM), ferrostatin-1 (200 nM), or deferoxamine (100 μM). Cell viability was assessed after 16 h using AquaBluer as an indicator of viable cells according to the manufacturer's recommendations (MultiTarget Pharmaceuticals, LLC). Fluorescence (excitation, 540 nm; emission, 590 nm) was analyzed on a Clariostar microplater reader.\nWe next performed comparative experiments to compare the effect of CPBA with the effect of the small molecule FSP1 inihibitor iFSP1. To this end, we incubated FSP1-WT or FSP1-KO HT1080 cells with FIN56 (see FIG. 15), BSO (see FIG. 16) or RSL3 (see FIG. 17) to induce ferroptosis as described above. Lack of FSP1 expression in FSP1-KO cell lines was confirmed by Western Blot as described above (see FIG. 14).\nNext, we compared the treatment of FSP1-WT and FSP1-KO cells with either iFSP1 or with CPBA (see FIGS. 15, 16 and 17)."}, "[2]": {"tested_on": "LOX-IMVI human melanoma cells", "experiment": "FIN56-induced ferroptosis in LOX-IMVI cells with mock vector or FSP1-Venus", "format": "cell-based", "protocol": "as §4\nLOX-IMVI cells are FSP1-deficient, and were reconstituted with either mock vector (expressing Venus), or with FSP1-Venus to restore FSP1 expression, and treated with either CPBA or iFSP1 as described above (see FIG. 18B)."}, "[3]": {"tested_on": "HT1080 FSP1-KO cells reconstituted with either FSP1-WT or FSP1-G2A", "experiment": "FIN56-induced ferroptosis in FSP1-KO cells reconstituted with FSP1-WT or FSP1-G2A", "format": "cell-based, human", "conditions": "iFSP1 10 μM, CPBA 100 μM", "protocol": "as §4\nIn order to study the effect of FSP1 membrane targeting on iFSP1 or CPBA-dependent ferroptosis sensitization, HT1080 FSP1-KO cells reconstituted with either FSP1-WT or the membrane binding-incompetent myristoylation mutant FSP1-G2A were incubated with serial FIN56-dilutions in the absence or presence of the DMSO solvent control, iFSP1 (10 μM), or CPBA (100 μM) (see FIG. 18A)."}, "human FSP1": {"molecular_target": "T2, human FSP1 (Homo sapiens, UniProt Q9BRQ8)", "T2 construct": "His6 (N, cleaved yes); made in house; host or cells: Escherichia coli BL21 pG-Tf2", "T2 sequence (Q9BRQ8 1-373)": "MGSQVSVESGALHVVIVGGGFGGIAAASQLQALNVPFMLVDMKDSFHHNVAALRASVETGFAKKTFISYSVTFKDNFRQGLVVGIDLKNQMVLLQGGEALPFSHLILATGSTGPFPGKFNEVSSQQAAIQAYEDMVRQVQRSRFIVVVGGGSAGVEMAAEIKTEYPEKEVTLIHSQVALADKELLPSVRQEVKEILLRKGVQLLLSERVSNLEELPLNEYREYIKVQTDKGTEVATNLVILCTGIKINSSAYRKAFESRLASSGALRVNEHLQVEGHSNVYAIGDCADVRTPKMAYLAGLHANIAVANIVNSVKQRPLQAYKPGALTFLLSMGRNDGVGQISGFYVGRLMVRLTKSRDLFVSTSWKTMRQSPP", "experiment": "In vitro FSP1 oxidoreductase (NADH consumption) assay, human FSP1", "format": "biochemical", "conditions": "resazurine or coQ1 as electron acceptor", "protocol": "as §1, §2, §3"}},
  "note": "Entries after “also recorded” stand apart in the source; their conditions may differ.",
  "data": [
    {"compound": "Cc1ccc(-c2c(C#N)c(N)n3c(nc4ccccc43)c2C#N)cc1", "note": "[iFSP1, reference compound]", "values": [
      {"measurement": "inhibition of murine FSP1 activity", "setting": "murine FSP1", "value": "has no effect on mFSP1; also recorded: much less active against murine FSP1"},
      {"measurement": "extent of sensitization to ferroptosis in FSP1-WT cells", "setting": "[1]", "value": "slightly smaller than the effect of CBPA in all conditions"},
      {"measurement": "additional effect in FSP1-deficient cells", "setting": "[1]", "value": "no additional effect of iFSP1 or CPBA is observed in FSP1-deficient cells"},
      {"measurement": "effectiveness in LOX-IMVI cells", "setting": "[2]; as described previously (Doll et al., Nature 2019)", "value": "ineffective in LOX-IMVI cells"},
      {"measurement": "ferroptosis sensitization depending on FSP1 membrane targeting", "setting": "[3]", "value": "sensitize FSP1-proficient cells to ferroptosis only if FSP1 can be targeted to membranes"},
      {"measurement": "inhibition of human FSP1 activity", "setting": "human FSP1", "value": "is an inhibitor of human FSP1"}
    ]},
    {"compound": "O=C(Nc1ccccc1C(=O)O)c1ccc(Oc2ccc(C(=O)Nc3ccccc3C(=O)O)cc2)cc1", "note": "[CPBA, 2-[[4-[4-[(2-carboxyphenyl)carbamoyl]phenoxy]benzoyl]amino]-benzoic acid]", "values": [
      {"measurement": "inhibition of murine FSP1 activity", "setting": "murine FSP1", "value": "inhibits human and murine FSP1 activity; also recorded: much more effective inhibition of murine FSP1 by CPBA compared to iFSP1"},
      {"measurement": "extent of sensitization to ferroptosis in FSP1-WT cells", "setting": "[1]", "value": "comparable to the effect of FSP1-deficiency"},
      {"measurement": "additional effect in FSP1-deficient cells", "setting": "[1]", "value": "no additional effect of iFSP1 or CPBA is observed in FSP1-deficient cells"},
      {"measurement": "effect in cells reconstituted with FSP1-Venus", "setting": "[2]; CPBA- and FIN56-treated cells", "value": "FSP1-expression rescues CPBA- and FIN56-treated cells from ferroptosis"},
      {"measurement": "enhancement of the ferroptosis-inducing effect of FIN56", "setting": "[2]; FSP1-deficient cells (mock vector)", "value": "does not enhance the ferroptosis-inducing effect of FIN56 in FSP1-deficient cells"},
      {"measurement": "ferroptosis sensitization depending on FSP1 membrane targeting", "setting": "[3]", "value": "sensitize FSP1-proficient cells to ferroptosis only if FSP1 can be targeted to membranes"},
      {"measurement": "inhibition of human FSP1 activity", "setting": "human FSP1", "value": "inhibits human and murine FSP1 activity"}
    ]}
  ]
}
